# Counter-ions that a name gives are not always drawn.
# Tested on: IL-17 induced IL-6 release from human dermal fibroblasts
# Experiment: Inhibition of IL-17A induced IL-6 release from dermal fibroblast cell line (HDF cell line assay)
# Type: cell-based
# Settings: Incubation Time 5 h
# Experimental: Inhibition of IL-17A Induced IL-6 Release from Dermal Fibroblast Cell Line
# The purpose of this assay is to test the neutralising ability to IL-17 proteins, in a human primary cell system.
# The resultant IL-6 response was then measured using a homogenous time-resolved FRET kit from Cisbio. The kit utilises two monoclonal antibodies, one labelled with Eu-Cryptate (Donor) and the second with d2 or XL665 (Acceptor).
# The ability of a compound to inhibit IL-17 induced IL-6 release from human dermal fibroblasts is measured in this assay.
# The TrypLE was neutralised using complete medium (45 mL) and the cells were centrifuged at 300×g for 3 minutes. […] The cells were left for a minimum of three hours, at 37° C./5% CO2, to adhere to the plate.
# 10 μL from the aqueous dilution plate was transferred to the reagent plate containing 30 μL of the diluted cytokines, to give a 2.5% DMSO solution. The compounds were incubated with the cytokine mixtures for 1 h or 5 h at 37° C. After the incubation, 10 μL was transferred to the assay plate, to give a […] solution, then incubated for 18-20 h at 37° C./5% CO2.
row,Structure (SMILES),IC50 [nM]
1,"Cc1nonc1C(=O)N[C@H](c1nc2c(F)c([C@@H](CC(F)F)C(=O)N[C@@H](C)C(F)(F)F)ccc2[nH]1)C1CCC(F)(F)CC1 (single isomer, unassigned) [Example 45]",501
2,"Cc1nonc1C(=O)N[C@H](c1nc2c(F)c([C@H](CC(F)F)C(=O)N[C@H](C)C(F)(F)F)ccc2[nH]1)C1CCC(F)(F)CC1 (single isomer, unassigned) [Example 47]",158
3,"Cc1nonc1C(=O)N[C@H](c1nc2c(F)c([C@@H](CC(F)F)C(=O)N[C@H](C)C(F)(F)F)ccc2[nH]1)C1CCC(F)(F)CC1 (single isomer, unassigned) [Example 48]",3160
4,"O=C(N[C@H](c1nc2c(F)c([C@H](CC(F)F)C(=O)NCC(F)(F)F)ccc2[nH]1)C1CCC(F)(F)CC1)c1ccccc1F (single isomer, unassigned) [Example 50]",10
5,"O=C(N[C@H](c1nc2c(F)c([C@@H](CC(F)F)C(=O)NCC(F)(F)F)ccc2[nH]1)C1CCC(F)(F)CC1)c1ccccc1F (single isomer, unassigned) [Example 51]",1580
6,"CC(C)n1ncnc1C(=O)N[C@H](c1nc2c(F)c([C@@H](CC(F)F)C(=O)NCC(C)(F)F)ccc2[nH]1)C1CCC(F)(F)CC1 (single isomer, unassigned) [Example 54]",79.4
7,"CC(C)n1ncnc1C(=O)N[C@H](c1nc2c(F)c([C@H](CC(F)F)C(=O)NCC(C)(F)F)ccc2[nH]1)C1CCC(F)(F)CC1 (single isomer, unassigned) [Example 55]",3.98
8,"CC(C)n1ncnc1C(=O)N[C@H](c1nc2c(F)c([C@@H](CC(F)F)C(=O)NCC(C)(C)F)ccc2[nH]1)C1CCC(F)(F)CC1 (single isomer, unassigned) [Example 57]",2510
9,"CC(C)n1ncnc1C(=O)N[C@H](c1nc2c(F)c([C@H](CC(F)F)C(=O)NCC(C)(C)F)ccc2[nH]1)C1CCC(F)(F)CC1 (single isomer, unassigned) [Example 58]",7.94
10,"CC(C)(F)CNC(=O)[C@H](CC(F)(F)F)c1ccc2[nH]c([C@@H](NC(=O)c3nonc3C3CC3)C3CCC(F)(F)CC3)nc2c1F (single isomer, unassigned) [Example 63]",158
11,"CC(C)(F)CNC(=O)[C@@H](CC(F)(F)F)c1ccc2[nH]c([C@@H](NC(=O)c3nonc3C3CC3)C3CCC(F)(F)CC3)nc2c1F (single isomer, unassigned) [Example 64]",2
12,"CC(C)n1ncnc1C(=O)N[C@H](c1nc2c(F)c([C@@H](CC(F)(F)F)C(=O)NCC(C)(F)F)ccc2[nH]1)C1CCC(F)(F)CC1 (single isomer, unassigned) [Example 69]",2510
13,"CC(C)n1ncnc1C(=O)N[C@H](c1nc2c(F)c([C@H](CC(F)(F)F)C(=O)NCC(C)(F)F)ccc2[nH]1)C1CCC(F)(F)CC1 (single isomer, unassigned) [Example 70]",6.31
14,"CC(C)n1ncnc1C(=O)N[C@H](c1nc2c(F)c([C@@H](CC(F)(F)F)C(=O)NCC(C)(C)F)ccc2[nH]1)C1CCC(F)(F)CC1 (single isomer, unassigned) [Example 72]",1580
15,"CC(C)n1ncnc1C(=O)N[C@H](c1nc2c(F)c([C@H](CC(F)(F)F)C(=O)NCC(C)(C)F)ccc2[nH]1)C1CCC(F)(F)CC1 (single isomer, unassigned) [Example 73]",6.31
16,"CC(F)(F)CNC(=O)[C@H](CC(F)(F)F)c1ccc2[nH]c([C@@H](NC(=O)C3(F)CC3)C3CCC(F)(F)CC3)nc2c1F (single isomer, unassigned) [Example 83]",2000
17,"CC(F)(F)CNC(=O)[C@@H](CC(F)(F)F)c1ccc2[nH]c([C@@H](NC(=O)C3(F)CC3)C3CCC(F)(F)CC3)nc2c1F (single isomer, unassigned) [Example 84]",25.1
18,"CC(C)n1ncnc1C(=O)N[C@H](c1nc2c(F)c([C@@H](CC(C)(F)F)C(=O)NCC(C)(F)F)ccc2[nH]1)C1CCC(F)(F)CC1 (single isomer, unassigned) [Example 86]",6310
19,"CC(C)n1ncnc1C(=O)N[C@H](c1nc2c(F)c([C@H](CC(C)(F)F)C(=O)NCC(C)(F)F)ccc2[nH]1)C1CCC(F)(F)CC1 (single isomer, unassigned) [Example 87]",7.94
20,"Cc1nonc1C(=O)N[C@H](c1nc2c(F)c(C(CC(F)(F)F)C(=O)NCCC(F)(F)F)ccc2[nH]1)C1CCC(F)(F)CC1 (stereo partly drawn) [Example 13, N—[(S)-(4,4-Difluorocyclohexyl){4-fluoro-5-[3,3,3-trifluoro-1-(3,3,3-trifluoropropyl-carbamoyl)propyl]-1H-benzimidazol-2-yl}methyl]-4-methyl-1,2,5-oxadiazole-3-carboxamide]",5.01
21,"Cc1nonc1C(=O)N[C@H](c1nc2c(F)c(C(CC(F)(F)F)C(=O)NCC3CC3(F)F)ccc2[nH]1)C1CCC(F)(F)CC1 (stereo partly drawn) [Example 14, N—[(S)-(4,4-Difluorocyclohexyl)(5-{1-[(2,2-difluorocyclopropyl)methylcarbamoyl]-3,3,3-trifluoropropyl}-4-fluoro-1H-benzimidazol-2-yl)methyl]-4-methyl-1,2,5-oxadiazole-3-carboxamide]",7.94
22,"Cc1nonc1C(=O)N[C@H](c1nc2nc(C3(C(=O)NCC(F)(F)F)CCC(F)(F)CC3)ccc2[nH]1)C1CCC(F)(F)CC1 [Example 39, N—[(S)-(4,4-Difluorocyclohexyl){5-[4,4-difluoro-1-(2,2,2-trifluoroethylcarbamoyl)-cyclohexyl]-1H-imidazo[4,5-b]pyridin-2-yl}methyl]-4-methyl-1,2,5-oxadiazole-3-carboxamide Monoformate Salt]",5.01
23,"Cc1nonc1C(=O)N[C@H](c1nc2c(F)c(C(CC(F)F)C(=O)NC(C3CC3)C(F)(F)F)ccc2[nH]1)C1CCC(F)(F)CC1 (stereo partly drawn) [Example 52, N—[(S)-(5-{1-[(1-Cyclopropyl-2,2,2-trifluoroethyl)carbamoyl]-3,3-difluoropropyl}-4-fluoro-1H-benzimidazol-2-yl)(4,4-difluorocyclohexyl)methyl]-4-methyl-1,2,5-oxadiazole-3-carboxamide]",5.01
24,"CC(C)n1ncnc1C(=O)N[C@H](c1nc2nc(C3(C(=O)NCC(F)(F)F)CCC(F)(F)CC3)ccc2[nH]1)C1CCC(F)(F)CC1 [Example 77, N—[(S)-(4,4-Difluorocyclohexyl){5-[4,4-difluoro-1-(2,2,2-trifluoroethylcarbamoyl)-cyclohexyl]-1H-imidazo[4,5-b]pyridin-2-yl}methyl]-2-isopropyl-1,2,4-triazole-3-carboxamide]",12.6
25,"O=C(N[C@H](c1nc2nc(C3(C(=O)NCC(F)(F)F)CCC(F)(F)CC3)ccc2[nH]1)C1CCC(F)(F)CC1)C1(F)CC1 [Example 78, 1-(2-{(S)-(4,4-Difluorocyclohexyl)[(1-fluorocyclopropanecarbonyl)amino]methyl}-1H-imidazo[4,5-b]pyridin-5-yl)-4,4-difluoro-N-(2,2,2-trifluoroethyl)cyclohexanecarboxamide]",15.8
26,"CC(C)n1ncnc1C(=O)N[C@H](c1nc2c(F)c([C@H](CC(C)(F)F)C(=O)NCC(C)(C)F)ccc2[nH]1)C1CCC(F)(F)CC1 [Example 79, N—[(S)-(4,4-Difluorocyclohexyl)(5-{(1S)-3,3-difluoro-1-[(2-fluoro-2-methylpropyl)-carbamoyl]butyl}-4-fluoro-1H-benzimidazol-2-yl)methyl]-2-isopropyl-1,2,4-triazole-3-carboxamide]",7.94
